Results on 14 compounds are retold here after patent US20120065066A1, “NOVEL HERBICIDES” (SYNGENTA CROP PROTECTION LLC, priority 2009, published 2012).

The structures appear in SMILES notation.

Assay type in all cases: in vivo
The subject of assay [1] is Alopecurus myosuroides (ALOMY). Kind of assay: Test Example 1, pre-emergence herbicidal test. Conditions: 480 h, evaluated 20 days later, 100=total damage to plant, 0=no damage to plant. The protocol: (§1) Monocotyledonous and dicotyledonous test plants were sown in standard soil in pots. After cultivation for one day (pre-emergence) or after 10 days cultivation (post-emergence) under controlled conditions in a glasshouse, the plants were sprayed with an aqueous spray solution derived from the formulation of the technical active ingredient in 0.6 ml acetone and 45 ml formulation solution containing 10.6% Emulsogen EL (Registry number 61791-12-6), 42.2% N-methylpyrrolidone, 42.2% dipropylene glycol monomethyl ether (Registry number 34590-94-8) and 0.2% X-77 (Registry number 11097-66-8). The test plants were then grown in a greenhouse under optimum conditions until, 15 days later for post-emergence and 20 days for pre-emergence, the test was evaluated (100=total damage to plant; 0=no damage to plant). Test Plants: Lolium perenne (LOLPE), Setaria faberi (SETFA), Digitaria sanguinalis (DIGSA), Alopecurus myosuroides (ALOMY), Echinochloa crus-galli (ECHCG) and Avena fatua (AVEFA), Pre-Emergence Data: […]

Assay [2] relates to Avena fatua (AVEFA). Kind of assay: Test Example 1, pre-emergence herbicidal test. Conditions: 480 h, evaluated 20 days later, 100=total damage to plant, 0=no damage to plant. The method, then:
as §1

Assay [3] concerns Digitaria sanguinalis (DIGSA). Kind of assay: Test Example 1, pre-emergence herbicidal test. Conditions: 480 h, evaluated 20 days later, 100=total damage to plant, 0=no damage to plant. The method, then: as §1
The subject of assay [4] is Echinochloa crus-galli (ECHCG). Kind of assay: Test Example 1, pre-emergence herbicidal test. Conditions: 480 h, evaluated 20 days later, 100=total damage to plant, 0=no damage to plant. The method, then:
as §1

Assay [5] deals with Lolium perenne (LOLPE). Kind of assay: Test Example 1, pre-emergence herbicidal test. Conditions: 480 h, evaluated 20 days later, 100=total damage to plant, 0=no damage to plant. The protocol:
as §1

For assay [6], the system named is Setaria faberi (SETFA). Description: Test Example 1, pre-emergence herbicidal test. Conditions: 480 h, evaluated 20 days later, 100=total damage to plant, 0=no damage to plant, read-out: SEFTA damage to plant. The protocol:
as §1

Assay [7] deals with Alopecurus myosuroides (ALOMY). Description: Test Example 1, post-emergence herbicidal test. As to conditions: 360 h, evaluated 15 days later, 100=total damage to plant, 0=no damage to plant. The method, then:
as §1, with “Post-Emergence” for “Pre-Emergence”

In assay [8] the test system is Avena fatua (AVEFA). Description: Test Example 1, post-emergence herbicidal test. Conditions: 360 h, evaluated 15 days later, 100=total damage to plant, 0=no damage to plant. The protocol: as §1, with “Post-Emergence” for “Pre-Emergence”
For assay [9], the system named is Digitaria sanguinalis (DIGSA). Description: Test Example 1, post-emergence herbicidal test. Conditions: 360 h, evaluated 15 days later, 100=total damage to plant, 0=no damage to plant. The protocol:
as §1, with “Post-Emergence” for “Pre-Emergence”

Assay [10] has as its system Echinochloa crus-galli (ECHCG). Description: Test Example 1, post-emergence herbicidal test. As to conditions: 360 h, evaluated 15 days later, 100=total damage to plant, 0=no damage to plant. The protocol:
as §1, with “Post-Emergence” for “Pre-Emergence”

Assay [11] concerns Lolium perenne (LOLPE). Description: Test Example 1, post-emergence herbicidal test. Conditions: 360 h, evaluated 15 days later, 100=total damage to plant, 0=no damage to plant. The method, then: as §1, with “Post-Emergence” for “Pre-Emergence”
Assay [12] concerns Setaria faberi (SETFA). Description: Test Example 1, post-emergence herbicidal test. Conditions: 360 h, evaluated 15 days later, 100=total damage to plant, 0=no damage to plant, read-out: SEFTA damage to plant. The method, then: as §1, with “Post-Emergence” for “Pre-Emergence”
The test system of assay [13] is Alopecurus myosuroides (ALOMY). Description: Test Example B, pre-emergence herbicidal test. Conditions: 312 h, evaluated after 13 days, 100=total damage to plant, 0=no damage to plant. The method, then:
(§2) Seeds of a variety of test species were sown in standard soil in pots. After cultivation for one day (pre-emergence) or after 8 days cultivation (post-emergence) under controlled conditions in a glasshouse (at 24/16° C., day/night; 14 hours light; 65% humidity), the plants were sprayed with an aqueous spray solution derived from the formulation of the technical active ingredient in acetone/water (50:50) solution containing 0.5% Tween 20 (polyoxyethelyene sorbitan monolaurate, CAS RN 9005-64-5). The test plants were then grown in a glasshouse under controlled conditions in a glasshouse (at 24/16° C., day/night; 14 hours light; 65% humidity) and watered twice daily. After 13 days for pre and post-emergence, the test was evaluated (100=total damage to plant; 0=no damage to plant). Test Plants: Setaria faberi (SETFA), Alopecurus myosuroides (ALOMY), Echinochloa crus-galli (ECHCG), and Avena fatua (AVEFA).

Assay [14] deals with Avena fatua (AVEFA). Kind of assay: Test Example B, pre-emergence herbicidal test. Conditions: 312 h, evaluated after 13 days, 100=total damage to plant, 0=no damage to plant. The protocol: as §2
For assay [15], the system named is Echinochloa crus-galli (ECHCG). Description: Test Example B, pre-emergence herbicidal test. Conditions: 312 h, evaluated after 13 days, 100=total damage to plant, 0=no damage to plant. The protocol: as §2
Assay [16] concerns Alopecurus myosuroides (ALOMY). Kind of assay: Test Example B, post-emergence herbicidal test. Conditions: 312 h, evaluated after 13 days, 100=total damage to plant, 0=no damage to plant. The protocol:
as §2

Assay [17] relates to Avena fatua (AVEFA). Description: Test Example B, post-emergence herbicidal test. As to conditions: 312 h, evaluated after 13 days, 100=total damage to plant, 0=no damage to plant. The protocol: as §2
In assay [18] the test system is Echinochloa crus-galli (ECHCG). Kind of assay: Test Example B, post-emergence herbicidal test. As to conditions: 312 h, evaluated after 13 days, 100=total damage to plant, 0=no damage to plant. The method, then:
as §2

For the compound `CCc1ccc(-c2ccc(Cl)cc2)cc1C1=C(O)[C@H]2[C@H]3C=C[C@](OC)(CC3)[C@H]2C1=O` (racemic) [Compound T8, rac-(3aS,4R,7R,7aS)-2-(4′-chloro-4-ethylbiphenyl-3-yl)-4-methoxy-3a,4,7,7a-tetrahydro-4,7-ethanoindene-1,3-dione], the pest or weed control at 250 g/ha turned out to be 60% in assay [1]; 10% in assay [2]; 100% in [3]; 100% in assay [4]; 70% in assay [5]; 90% in assay [6]. For the same compound, the pest or weed control at 125 g/ha in [7] came out at 70%; in [8] it was 10%; in assay [9], 100%; in assay [10], 100%; in assay [11], 0%; in assay [12] it was 80%.

As to `CCc1ccc(-c2ccc(Cl)c(C(F)(F)F)c2)cc1C1=C(O)[C@H]2[C@H]3CC[C@H](C3)[C@H]2C1=O` [Compound T33], the pest or weed control at 250 g/ha was determined as 20% in assay [13]; 30% in assay [14]; 100% in assay [15]; 70% in assay [16]; 70% in assay [17]; 90% in assay [18].

Turning to `CCc1ccc(-c2ccc(Cl)s2)cc1C1=C(O)[C@H]2[C@H]3CC[C@H](C3)[C@H]2C1=O` [Compound T34], the pest or weed control at 250 g/ha in assay [13] was 30%; in assay [14], 40%; in assay [15], 100%; in assay [16], 60%; in assay [17], 80%; in assay [18], 90%.

With `CCc1ccc(-c2ccc(Cl)c(F)c2)cc1C1=C(O)[C@H]2[C@H]3CC[C@H](C3)[C@H]2C1=O` [Compound T35], the pest or weed control at 250 g/ha in [13] came out at 80%; in assay [14], 70%; in assay [15], 90%; in assay [16], 90%; in [17], 90%; in [18], 90%.

In the case of `CCc1ccc(-c2ccc(Cl)nc2)cc1C1=C(O)[C@H]2[C@H]3CC[C@H](C3)[C@H]2C1=O` [Compound T36], the pest or weed control at 250 g/ha in [13] stood at 30%; in assay [14], 40%; in assay [15], 80%; in assay [16] it was 0%; in [17] it was 20%; in assay [18] it was 50%.

For the compound `CCc1ccc(-c2ccc(Cl)nc2Cl)cc1C1=C(O)[C@H]2[C@H]3CC[C@H](C3)[C@H]2C1=O` [Compound T37], the pest or weed control at 250 g/ha was 50% in assay [13]; 70% in [14]; 90% in assay [15]; 70% in assay [16]; 0% in assay [17]; 90% in [18].

On to `CCc1ccc(-c2c(F)cc(Cl)cc2Cl)cc1C1=C(O)[C@H]2[C@H]3CC[C@H](C3)[C@H]2C1=O` [Compound T38], for which the pest or weed control at 250 g/ha in assay [13] is 0%; in assay [14], 0%; in [15], 80%; in assay [16], 30%; in [17], 40%; in [18], 90%.

For `CCc1ccc(-c2ccc(Cl)c(F)c2Cl)cc1C1=C(O)[C@H]2[C@H]3CC[C@H](C3)[C@H]2C1=O` [Compound T39], the pest or weed control at 250 g/ha in assay [13] was 40%; in assay [14] it was 70%; in assay [15], 100%; in assay [16] it was 70%; in [17] it was 50%; in [18], 100%.

For `CCc1ccc(-c2ccc(Cl)c(F)c2F)cc1C1=C(O)[C@H]2[C@H]3CC[C@H](C3)[C@H]2C1=O` [Compound T40], the pest or weed control at 250 g/ha worked out at 50% in [13]; 60% in [14]; 100% in assay [15]; 90% in [16]; 90% in assay [17]; 100% in assay [18].

Regarding `CCc1ccc(-c2ccc(Cl)c(Cl)c2F)cc1C1=C(O)[C@H]2[C@H]3CC[C@H](C3)[C@H]2C1=O` [Compound T41], the pest or weed control at 250 g/ha in assay [13] stood at 0%; in assay [14] it was 0%; in assay [15], 50%; in [16] it was 0%; in assay [17], 60%; in assay [18], 90%.

In the case of `CCc1ccc(-c2c(F)cc(Cl)cc2Cl)cc1C1=C(O)[C@H]2[C@H]3CC[C@H](CC3)[C@H]2C1=O` [Compound T42], the pest or weed control at 250 g/ha in [13] is 0%; in [14], 0%; in assay [15], 0%; in assay [16], 0%; in assay [17], 40%; in assay [18], 80%.

As for `CCc1ccc(-c2ccc(Cl)c(F)c2Cl)cc1C1=C(O)[C@H]2[C@H]3CC[C@H](CC3)[C@H]2C1=O` [Compound T43], the pest or weed control at 250 g/ha in [13] stood at 0%; in assay [14] it was 20%; in [15], 40%; in [16] it was 70%; in assay [17], 30%; in assay [18], 100%.

With `CCc1ccc(-c2ccc(Cl)c(F)c2F)cc1C1=C(O)[C@H]2[C@H]3CC[C@H](CC3)[C@H]2C1=O` [Compound T44], the pest or weed control at 250 g/ha in [13] was found to be 0%; in assay [14], 20%; in assay [15], 70%; in [16], 90%; in [17], 80%; in assay [18], 100%.

As to `CCc1ccc(-c2ccc(F)cc2)cc1C1=C(O)[C@H]2[C@H]3CC[C@H](CC3)[C@H]2C1=O` [Compound T46], the pest or weed control at 250 g/ha in assay [13] came to 20%; in [14] it was 0%; in [15], 80%; in [16], 50%; in assay [17], 30%; in assay [18], 100%.
